# Patent US20130171198A1, “ANTIMICROBIAL AND VULNERARY ACTION PHARMACEUTICAL COMPOSITION FOR EXTERNAL APPLICATION AND ITS PRODUCTION PROCESS” (priority 2010, published 2013)
# Experiments:
# [1] = Fosfomycin sorption by BHSiO2 particles; type: physicochemical
# Text: Fosfomycin sorption rate by BHSiO2 particles was 20-25%.
# [2] = Incision model, guiney pigs, external application of powder; type: in vivo; details: for Incision length (cm) Me: powder form, external application daily
# Procedure: (§1) The experiments were conducted using adult rabbits “Chinchilla” (males, weight 3-3.5 kg) and random bred guiney pigs (males, weight 0.8-0.9 kg) according to the “Regulations for test animals use” (USSR Ministry of health order supplement #755 from 12.08. 1977). There have been made several incisions with a sterile scalpel on the left and right side of the depilated coupling area (1.5% novocain solution was used for local anesthesia); incision 2 cm long and 0.8 cm deep with muscular layer seizure for guiney pigs and 2 cm long and 1 cm deep with muscular layer seizure for rabbits. Each day in 8 days period (starting with the very first day) the wounds of the animals control group was bathed with a sterile normal saline solution, were covered with a sterile tissue fixed with a plaster. The wounds of the test group animals were bathed with a sterile saline solution, then dried and then dusted with fosfomycin sterile powder uniform layer (2-3 mm) or a same layer pharmaceutical composition (for guiney pigs), the wounds of the test rabbits were irrigated with a sterile 2.5% fosfomycin solution or sterile 5% pharmaceutical composition suspension, after that they were dried and covered with a sterile tissue fixed with a plaster. The regenerative process dynamics was monitored during 9 days. The medics measured the length of the wound open area and made a visual evaluation of wound edges and walls, the presence and character of the exudates, necrosis presence. The test results can be seen in Tables No 2 and No 3. The statistical data processing has been made with a program Statistica 6.0. The experimental data are presented as median (Me), Low and High quartile (LQ-HQ), the difference authenticity has been calculated using Student t-criterion with p<0.05 values.
# [3] = Incision model, rabbits, external application of solution/suspension; type: in vivo; details: for Incision length (cm) Me: 2.5% fosfomycin solution or 5% composition suspension
# Procedure: as §1
# [4] = test system: infected S. aureus thermal burn; experiment: Infected thermal burn model, guiney pigs; type: in vivo; details: for Necrosis area (cm^2) / Thermal burn area (cm^2): 2.5% solution or 5% suspension
# Procedure: The experiments were conducted using adult rabbits “Chinchilla” (males, weight 3-3.5 kg) and random bred guiney pigs (males, weight 0.8-0.9 kg) according to the “Regulations for test animals use” (USSR Ministry of health order supplement #755 from 12.08. 1977). There have been made several skin integument burnings with a warmed up on the burner flame metallic applicator on the left and right side of the depilated coupling area (1.5% novocain solution was used for local anesthesia) by attaching it to the skin and holding for 40 seconds. In the center of the ambustial area there has been intracutaneously inserted Staphylococcus aureus (ATCC No 25923 F-49) daily suspension with a 0.1 ml volume in a 10^10 CFU/ml dosage. Each day in 13 days period (starting with the very first day) the burnings of the animals control group was bathed with a sterile normal saline solution, dried and covered with a sterile tissue fixed with a plaster. The burnings of the test animals were irrigated with a sterile 2.5% fosfomycin solution or sterile 5% pharmaceutical composition suspension, after that they were dried and covered with a sterile tissue fixed with a plaster. The burnings condition dynamics was monitored during 14 days. The medics measured the burning wound surface and necrosis area in the center of the burning wound. You may see the results in the table No 4. The statistical data processing has been made with a program Statistica 6.0. The experimental data are presented as median (Me), Low and High quartile (LQ-HQ), the difference authenticity has been calculated using Student t-criterion with p<0.05 values.
# [5] = 2.5% solution / 5% water suspension
structure (smiles),measurement,setting,value
"C[C@@H]1O[C@@H]1P(=O)(O)O [Fosfomycin, fosfomycin]",Fosfomycin sorption rate by BHSiO2 particles,[1],20-25%
same,Incision length (cm) Me,[2]; Day 2,0.9 cm
same,Incision length (cm) Me,[2]; Day 6,0.5 cm
same,Incision length (cm) Me,[2]; Day 9,0.3 cm
same,Incisions regeneration process versus control group,[2]; powder forms,authentically increase incisions regeneration process comparing to the control group
same,Incision length (cm) Me,[3]; Day 2,0.5 cm
same,Incision length (cm) Me,[3]; Day 6,0.4 cm
same,Incision length (cm) Me,[3]; Day 9,0.25 cm
same,Incisions regeneration process versus control group,[3]; [5],authentically increase incisions regeneration process comparing to the control group
same,Infected S. aureus thermal burn regeneration process versus control group,[4]; [5],authentically increase infected S. aureus thermal burn regeneration process comparing to the control group
same,Necrosis area (cm^2),[4]; Day 2,0.0 cm^2
same,Thermal burn area (cm^2),[4]; Day 2,1.2 cm^2
same,Necrosis area (cm^2),[4]; Day 6,0.3 cm^2
same,Thermal burn area (cm^2),[4]; Day 6,0.8 cm^2
same,Necrosis area (cm^2),[4]; Day 9,0.25 cm^2
same,Thermal burn area (cm^2),[4]; Day 9,0.7 cm^2
same,Necrosis area (cm^2),[4]; Day 14,0.2 cm^2
same,Thermal burn area (cm^2),[4]; Day 14,0.4 cm^2
